The source of these data is US9901079B2, “Inhibition of oncogenic kras-induced GM-CSF production and function” (New York University, priority 2011, dated 2018).

The structures appear in SMILES notation.

The assay concerns GM-CSF expression in Kras^G12D-PDEC. Put plainly: GM-CSF mRNA expression in GFP-Kras^G12D-PDEC after pathway inhibitor treatment (quantitative RT-PCR). The assay is classed as cell-based, mouse. Particulars: 24 hour treatment; U0126 2 μM, LY294002 10 μM (FIG. 3B). The source says:
Data are presented as an average fold induction over values from GFP-WT-PDEC or normal pancreata. Error bars indicate SD (n=3). […] Error bars indicate SD (n=3). […] Data are presented as an average fold induction over values from normal pancreatic tissue. Error bars indicate SD (n=3). FIG. 3D are photomicrographs showing immunohistochemical staining for GM-CSF protein in representative samples of human pancreatic cancer containing PanIN lesions (i-normal duct from adjacent non-malignant tissue; ii-iii PanIN lesions; iv-invasive PDA). White arrowheads indicate pancreatic duct (i), PanIN (ii and iii), and PDA (iv). Scale bars=50 μm. Extraction and reverse transcription of total RNA from PDECs was performed using RNeasy mini kit (QIAGEN) and QuantiTect reverse transcription kit (QIAGEN), respectively. SYBR Green PCR Master Mix (USB) was used for amplification and the samples were run on the Stratagene Mx 3005P. Expression levels were normalized by GAPDH.

As to `N#CC(=C(/N)Sc1ccccc1N)/C(C#N)=C(\N)Sc1ccccc1N` [U0126], the “GM-CSF expression in Kras^G12D-PDEC” value is on record as “abrogation of GM-CSF expression”.
